The results in this text go back to patent US20240148711A1, “COMPOSITION COMPRISING BETA BLOCKER AND CHOLINESTERASE INHIBITOR FOR TREATMENT OF NEURODEGENERATIVE DISEASE” (DR. NOAH BIOTECH INC., priority 2022, published 2024).

Test [1] deals with Immortalized human neural progenitor cell line (ReNcell VM). Put plainly: Differentiation of neural progenitor cells into motor neurons (HB9 immunostaining / CellTag). The class given is cell-based. Particulars: compared to the control group. How it is done:
Immortalized human neural progenitor cell line (ReNcell VM) as a neural progenitor cell that may differentiate into neurons and glial cells was treated with nebivolol alone, donepezil alone, and nebivolol+donepezil combination. Thereafter, immunostaining was performed using an antibody capable of selectively binding to motor neurons (anti-HB9 antibody) and a CellTag probe that stains whole cells. Thereafter, the HB9 positive signal and the value of CellTag were analyzed to determine the number of motor neurons among the total cells, thereby measuring the degree of differentiation of neural precursor cells into motor neurons.

The subject of the next test is microglia (BV2 cells). Put plainly: NO generation in LPS-treated microglia (anti-inflammatory effect). Format: cell-based. Particulars: BV2 cells treated with LPS and drug at the same time; compared to the LPS control group. How it is done: Microglia (BV2 cells) were treated with LPS to cause an inflammatory response and, at the same time, treated with nebivolol alone, donepezil alone, or nebivolol+donepezil combination to measure the concentration of generated NO.

For the next test, the system named is neuroblasts (SH-SY5Y). Put plainly: ROS generation after H2O2 oxidative stress (DCF fluorescence). The class given is cell-based. The settings on record: compared to the control group.
In a further test the test system is SOD1G93A transgenic mice. Nature of the test: Rotarod latency test in ALS animal model. The settings on record: oral once daily from 70 days of age for 70 days, edaravone 15 mg/kg, NDC-011 nebivolol 5 mg/kg+donepezil 3 mg/kg, compared to the normal control group. Format: in vivo. In general terms: Falling from the rotarod earlier than controls is read as motor impairment.

[2] abbreviates: ReNcell VM, low concentration (0.01 μM) of nebivolol or donepezil alone.

Experimental for SOD1G93A transgenic mice: SOD1G93A transgenic mice as ALS animal models were used to verify the in vivo efficacy of the nebivolol and donepezil complex. Edaravone (15 mg/kg) as a commercially available ALS treatment, or a nebivolol and donepezil complex (NDC-011, nebivolol 5 mg/kg+donepezil 3 mg/kg) according to the present invention was administered to mice from 70 days of age once daily. Each dose was orally administered for 70 days. The rotarod latency test was performed immediately before the start of drug administration to evaluate the motor ability of each animal, and, thereafter, the rotarod latency test was performed during the drug administration period at 7-day intervals to evaluate the motor ability of the ALS animals.

`OC(CNCC(O)C1CCc2cc(F)ccc2O1)C1CCc2cc(F)ccc2O1` (centres unmarked) [nebivolol, Nebivolol]: the “HB-9 expression (motor neuron marker)” value is listed as “significant increase in HB-9 expression” in test [1] (ReNcell VM under differentiation conditions) and “not observed” in test [1] (setting [2]). The “concentration of generated NO” value in the test with microglia (BV2 cells) was “significant reduction in NO”. Further, in the test on neuroblasts (SH-SY5Y), the “amount of generated reactive oxygen species (ROS)” value is “no significant decrease”.
As for `CC1=NN(c2ccccc2)C(=O)C1` [edaravone, Edaravone], the “age from which exercise capacity decreased (rotarod latency)” value in the test on SOD1G93A transgenic mice was determined as 84 days.
`COc1cc2c(cc1OC)C(=O)C(CC1CCN(Cc3ccccc3)CC1)C2` (centres unmarked) [donepezil, Donepezil]: the “HB-9 expression (motor neuron marker)” value in test [1] (setting [2]) was “not observed”. The “concentration of generated NO” value in the test with microglia (BV2 cells) is recorded as “significant reduction in NO”. Further, the “amount of generated reactive oxygen species (ROS)” value in the test with neuroblasts (SH-SY5Y) is listed as “no significant decrease”.
